Test results taken from patent US11020378B2, “Compounds, compositions and methods for treating insulin resistance” (UNIVERSITE PARIS DESCARTES, priority 2017, dated 2021).

What was measured:
[1] = Repeat-dose toxicity study in C57Bl/6J mice; type: in vivo
Procedure: A repeat-dose toxicity study was also conducted in C57Bl/6J mice (12 males, 8 weeks old). Mice were treated daily either by gavage with 30 mg/kg/day of compound of Formula (Ia) diluted in 0.5% carboxymethylcellulose; or by intraperitoneal injection with 30 mg/kg/day of compound of Formula (Ia) diluted in DMSO, or with DMSO alone, for a period of 15 days.

[2] = system: PI3K/Akt pathway; assay: Luc-Akt-PH/YFP-membrane BRET in MCF7 line; type: cell-based; conditions: 50 μM, MCF7 cells
Procedure: FIG. 5A and FIG. 5B, the effect of the compound of Formula (Ia) according to the invention (black bars) on the activation of the PI3K/Akt pathway measured by the Luc-Akt-PH/YFP-membrane BRET technique compared to the DMSO (Dimethylsulfoxide) control (white bars) as measured on (FIG. 5A) HEK293T cells pre-incubated or not for 1 h with tyrosine kinase inhibitor AG1024 at a concentration of 25 μM final or on (FIG. 5B) an MCF7 line doubly and stably transfected with the vectors encoding Luc-Akt-PH and YFP-membrane. The results, expressed as BRET delta, are the average of 3 to 8 independent experiments (**p<0.01, ***p<0.001, by Newman-Keuls multiple comparison test).
To measure the activity of the PI3-kinase pathway by the BRET technique, HEK293T cells are transfected with plasmids allowing, on the one hand, the expression of the PH (Pleckstrin Homology) domain of the Akt protein which has been fused to the luciferase and, on the other hand, a membrane-addressing sequence which has been fused to the YFP protein. When the PH domain of Akt is recruited to the membrane by the PIP3s, an energy transfer between the luciferase that is coupled to the PH domain of Akt and the membrane YFP protein takes place. The measured BRET signal is a control of the production of PIP3s at the membrane and is a reflection of the activation of the PI-3-kinase/Akt pathway in real time on cells. […]

[3] = system: SREBP-1c, ACC, FAS and SCD1 expression; assay: Expression of lipogenesis genes in hepatocytes in primary culture (RT-qPCR); type: cell-based, mouse; conditions: condition G25i (25 mM glucose, 10 nM insulin), 24 h
Procedure: FIG. 7, the effect of the compound of Formula (Ia) according to the invention (black bars) on the expression of insulin target genes, SREBP-1c, ACC, FAS, and SCD1 (FIGS. 7A-D, respectively) involved in the lipogenesis pathway. Hepatocytes in primary culture are cultured in the presence of 5 mM glucose (G5) or 25 mM glucose (G25) and 10 nM insulin for 24 h. The relative quantification of mRNAs is performed by RT-qPCR. The values are related to the quantification of the 18S gene in the same sample in order to normalize the results. The results are the average of 3 to 5 independent experiments (*p<0.05 by Anova followed by a Newman-Keuls test).
Briefly, mouse hepatocytes in primary culture are cultured in the presence of 5 mM glucose (G5) or 25 mM glucose (G25), and 10 nM insulin for 24 h. The relative quantification of mRNAs is performed by RT-qPCR and the values are related to the quantification of the 18S gene from the same sample in order to normalize the results.

Cc1ccc(/C=C/C(=O)Nc2ccc(S(=O)(=O)Nc3onc(C)c3C)cc2)o1 [Ia]
liver appearance ([1]; 30 mg/kg/day by gavage or intraperitoneal injection): no difference | weight gain ([1]; 30 mg/kg/day by gavage or intraperitoneal injection, after 12 days of treatment): no difference | blood glucose level measured in the post-absorptive state ([1]; 30 mg/kg/day, regardless of the administration mode): decrease | toxic effect (overall conclusion) ([1]; HEK293T cells and repeat-dose mouse study): no detectable toxic effect | effect on the production of PIP3s at the membrane ([2]; absence of insulin): no effect | effect on the production of PIP3s at the membrane ([2]; presence of 100 nM insulin): no effect | increase of the effect of insulin on the expression of ACC [3]: about 60% | increase of the effect of insulin on the expression of FAS [3]: about 60% | increase of the effect of insulin on the expression of SCD1 [3]: about 60% | increase of the effect of insulin on the expression of SREBP-1c [3]: about 60%
